Values quoted from earlier work as cited in patent US11389512B2, “Use of low molecular weight fractions of human serum albumin in treating diseases” (Ampio Pharmaceuticals, Inc., priority 2015, dated 2022).

How the values were obtained:
[1] = test system: platelet activating factor
[2] = in vivo

time to be cleared from the body [2] [days] | SMILES | inhibition of platelet activating factor [1]
 | CC1NC(=O)C(CC(=O)O)NC1=O (centres unmarked) [DA-DKP, 3-methyl-2,5-diketopiperazine-6-acetic acid] | inhibit
5 | CC(=O)Oc1ccccc1C(=O)O [aspirin, acetylsalicylic acid] | 
